The text below walks through data of US20240307427A1 (priority 2023, published 2024).

In brackets after ≈: the same amount, converted by molar mass. Like-named read-outs stand apart in the source and are kept apart here.

The subject of one series is SARS-COV-2. Particulars: in vitro, human precision-cut lung slices; cited from earlier work.
The conditions of series [1]: deposited dose 0.35 mg/kg by inhalation vs 10 mg/kg intravenous, African green monkeys; cited from earlier work.
The conditions of series [2]: cited from earlier work.
For series [3] the following is noted: intravenous doses, healthy subjects, cited from earlier work.
Another series relates to A549 cells. The series can be described thus: MTT cell viability assay. The note with it: 24 hours, 0.05 to 10 μM. On the procedure:
A549 cells were cultured in DMEM/F12 medium supplemented with 10% (v/v) FBS and 1% (v/v) antibiotic-antimycotic at 37° C. in a humidified incubator with 5% CO2. On the day prior to treatment addition, approximately 2×10^4 cells/well were seeded into 96-well plates and incubated overnight. […] Upon the treatment, the cells were incubated with 200 μL of MTT reagent (0.8 mg/mL) for 3 hours at 37° C. 100 μL of isopropyl alcohol was then added to each well to solubilize the formazan dye crystals and the absorbance at 570 nm was measured using a microplate spectrophotometer (Thermo Scientific™ Multiskan™ GO, Thermo-Fisher, Waltham, MA, USA). Cell viability (%) was calculated by dividing the absorbance of treated cells by the absorbance of cells from the control group with equivalent concentration of DMSO as the treatment group. Six replicates were made for each concentration and the whole MTT assay was repeated in triplicate.
On the technique in general: Tetrazolium assays rely on reduction of a dye to a coloured formazan, in cell work by metabolically active cells.

A short description of series [4]: Equilibrium solubility measurement in organic solvents. The class given is physicochemical. Particulars: 25 °C, organic solvent or mixture, thermodynamic from solid. Here is the method: 10 μL samples were injected onto the column.
Samples were filtered through 0.45 μm membrane filters, followed by dilution to appropriate concentrations for the HPLC assay.

A short description of series [5]: pH determination during dissolution in simulated lung fluid. The note with it: equimolar amount (0.017 mol) in 20 mL SLF, initial pH 7.4, 37° C. The class given is physicochemical. On the procedure:
The solution containing the samples was stirred at 75 rpm with a magnetic bar at 37° C., followed by in situ pH measurement at designated time points, i.e., 2 s, 5 s, 10 s, 15 s, 30 s, 45 s, 1 min, 1.5 min, 2 min, 3 min, 5 min, and 10 min, using a pH meter (Lab 850, Schott Instruments, United Kingdom).

Series [6] in a line: In-vitro drug release study in pH 7.4 simulated lung fluid. Particulars: 20 mL pH 7.4 SLF3, 37° C., 75 rpm, LAG cocrystal <63 μm, n=3. It is filed as physicochemical.

Regarding `CC(=O)Oc1ccccc1C(=O)O` [ASA, acetylsalicylic acid], the SARS-COV-2 viral replication entry with SARS-COV-2 is recorded as “inhibit SARS-COV-2 viral replication”.

On to `CCC(CC)COC(=O)[C@H](C)N[P@](=O)(OC[C@H]1O[C@@](C#N)(c2ccc3c(N)ncnn23)[C@H](O)[C@@H]1O)Oc1ccccc1` [RDV, Remdesivir], for which the “lung RDV triphosphate levels, inhaled vs intravenous” value in series [1] is given as “similar”. Besides, the aqueous solubility in series [2] (background statement) is listed as less than 0.03 mg/mL. Also, in series [2] (water at 25° C.), the solubility in water is listed as 0.028 mg/mL (≈ 0.0465 mM). In addition, the “highest plasma concentration of RDV observed” value in series [3] is 4420 ng/mL; in series [3] (converted value) it was approximately 7.8 µM. Further, the cell viability entry with A549 cells is recorded as “around 100%”. Besides, the solubility at 72 h in series [4] (Acetone) was found to be 66.4 ± 5.34 mg/mL (≈ 110 mM); in series [4] (Acetonitrile) it was 5.68 ± 0.6 mg/mL (≈ 9.43 mM); in series [4] (Chloroform) it was 3.86 ± 0.3 mg/mL (≈ 6.41 mM); in series [4] (Ethanol), 34.2 ± 2.29 mg/mL (≈ 56.7 mM); in series [4] (Methanol) it was 191 ± 13.3 mg/mL (≈ 317 mM).

For `CCC(CC)COC(=O)C(C)NP(=O)(OCC1OC(C#N)(c2ccc3c(N)ncnn23)C(O)C1O)Oc1ccccc1.O=C(O)c1ccccc1O` (stereo not drawn) [RDV−SA, cocrystal of remdesivir and salicylic acid], the cell viability result in the series on A549 cells is reported as “around 100%”. Besides, the “medium pH at end point of dissolution (10 min)” value in series [5] is reported as 7.41±0.01. Also, the “RDV dissolved at 120 min” value in series [6] is listed as 71.22%.

Consider `O=C(O)c1ccccc1O` [SA, Salicylic acid], for which, in the series on SARS-COV-2, the SARS-COV-2 viral replication entry is on record as “inhibit SARS-COV-2 viral replication”. In addition, in series [5], the “medium pH at end point of dissolution (10 min)” value is given as 7.35±0.03 and the “medium pH in 2 seconds (transient drop)” value is on record as 6.89±0.02.

One may read the aqueous solubility as the concentration that dissolves in the medium under given conditions. One may read the solubility as the dissolved amount per volume that the medium holds.
